Assay results as given in patent publication US12084680B2, “Methods for efficient derivation of human motor neurons from diverse spinal regions” (Wisconsin Alumni Research Foundation, priority 2016, dated 2024).

What was measured:
Type in all cases: cell-based, human
[1] = system: H9 hESCs; experiment: Differentiation of cervical OLIG2+ progenitors to post-mitotic motor neurons (immunocytochemistry, flow cytometry); settings: 20 total days of differentiation, SHH, or SAG 2 μM instead of SHH
From the text: Having optimized the efficiency of OLIG2 induction at diverse spinal cord regions, next region-specific post-mitotic motor neurons were generated. Cervical OLIG2^+ motor neuron progenitors were en bloc passaged and gradually differentiated to ISL1^+ motor neurons over a 14-day period (FIGS. 7A-7B). […] The extensive co-labeling of ISL1^+ cells with SMI32-reactive non-phosphorylated neurofilament heavy chain is indicative of motor neuron identity. Widespread HB9/βIII-tubulin motor neuron expression was also observed throughout the cultures (FIG. 7C). Since spinal motor neurons in vivo are observed to be both ISL1^+, ISL1^+/HB9^+, and HB9^+ but are all SMI32 reactive, flow cytometry of the SMI32^+ cells is proposed to best represent the total percentage of motor neurons in each culture. Moreover, the use of SAG (2 μM), a small molecule Smoothened agonist45, instead of SHH yielded similar efficiencies (72±4% SMI32^+, 63±13% ISL1^+, and 65±15% HB9^+) (FIG. 7C). High efficiencies were also observed for thoracic cultures, whereas lumbar cultures saw a ˜10% decrease in efficiency (FIG. 7C). For all regions, ISL1^+ motor neurons predominantly co-labeled with FOXP1 (70-80% in cervical motor neurons and 40-60% in thoracic and lumbar motor neurons) versus LHX3 markers (20-30% in cervical and thoracic cultures and 15-20% in lumbar cultures) (FIG. 7C). […] These trends agree with the observed distribution of columnar motor neuron phenotype in the cervical, thoracic and lumbar spinal cord in vivo, and it is consistent with our prior observations of motor neuron populations derived using the deterministic HOX patterning protocol.
(§1) Thoracic identity was reached after an additional 24 h. Then, to reach the lumbosacral level, cells were given 30 ng/ml GDF11 and 1 μM DM for an additional 48 h. For neuroectoderm induction and generation of OLIG2^+ progenitors, FGF8b was removed at the designated time points and the concentration of CHIR was increased for 6 h as described in the text, followed by a transition to media containing RA, PM, and SHH for a period of 48 h. […]

[2] = system: H9 hESCs; experiment: NKX6.1 induction in neurally differentiating H9 hESCs after 24 h treatment (flow cytometry, RT-PCR, day 3)
Description: (§2) NKX6.1 is the earliest expressed marker in the motor neuron development cascade in vivo, so we examined its expression in response to Wnt/β-catenin, RA, and SHH signaling during hPSC motor neuron differentiation. H9 hESCs were differentiated in E6 medium for 2 days to initiate neural fate acquisition34 and then treated with combinations of RA, purmorphamine (PM, a small molecule agonist of SHH signaling), and CHIR for 24 h (FIG. 4A). […] Using the H9 ishcat2 line, we observed that CHIR-mediated induction of NKX6.1 was β-catenin-dependent, as the optimal 3 days of shRNA-mediated CTNNB1 knockdown upstream of CHIR treatment was required to maximally reduce NKX6.1 induction to 44±1% (FIG. 4E). The correlation between NKX6.1 knockdown and days of doxycycline treatment was presumably due to the time delay for shRNA synthesis and subsequent gene knockdown in Tet-on systems. […] Exogenously added WNT3A (200 ng/mL) could also induce NKX6.1 expression (60±14%) (FIG. 4G), providing further evidence for the involvement of Wnt/β-catenin signaling in this process. In contrast, simultaneous treatment with CHIR and BMP4 (200 ng/mL), a dorsal patterning factor, reduced the expression of NKX6.1 from 91±1% to 68±2% (FIG. 4H).
(§3) hESCs were dissociated with accutase (Thermo Fisher Scientific) and reseeded at 1×10^5 cells/cm2 in E8 medium containing 10 μM ROCK inhibitor (Y27632; R&D Systems) on 6-well polystyrene tissue culture plates coated with 100 μg/mL poly-L-ornithine (PLO; Sigma) and 8 μg/well VTN-NC. The timelines and relevant growth factors/small molecules for all differentiation procedures are described in detail in the Results section and its accompanying figures. Cells were differentiated for various amounts of time in E6 medium containing the same insulin concentration as E8 medium as described above with varying combinations of soluble factors (product information and concentration ranges are found in Table 2). For neuromesodermal induction and HOX propagation, cells were sequentially cultured with FGF8b, CHIR99021 (CHIR), GDF11, and dorsomorphin (DM) as previously described. Briefly, to initiate the neuromesodermal state, cells were changed to E6 medium followed by addition of FGF8b (200 ng/ml) 24 h later. To generate cervical neuromesodermal progenitors, cells were washed with PBS, treated with accutase, and re-seeded in E6 medium containing 200 ng/ml FGF8b, 3 μM CHIR, and 10 μM Y27632 on VTN-NC-coated plates at a density of 1.5×10^5 cells/cm^2 for 48 h. To generate thoracic neuromesodermal progenitors, cells were passaged again after 72 h of CHIR treatment and re-seeded at different densities as described in the text.
Thoracic identity was reached after an additional 24 h. Then, to reach the lumbosacral level, cells were given 30 ng/ml GDF11 and 1 μM DM for an additional 48 h. For neuroectoderm induction and generation of OLIG2^+ progenitors, FGF8b was removed at the designated time points and the concentration of CHIR was increased for 6 h as described in the text, followed by a transition to media containing RA, PM, and SHH for a period of 48 h. For differentiation of the OLIG2^+ progenitors to motor neurons, cells were subcultured by en bloc passage using a cell scraper, reseeded at a 1:200 ratio in Matrigel-coated 8-well chamber slides, and differentiated for 14 days in E6 medium containing 1 μM RA, 100 nM PM, and 100 ng/mL SHH, with media exchange every 3 days (10 μM Y27632 was included during the en bloc passaging step and removed after the first media exchange). For differentiation of lumbar cultures, 1 μM DM was included in all steps. For the myoblast co-culture experiments, OLIG2^+ cultures were en bloc passaged, frozen in E6 medium containing 10% DMSO, shipped to a different location, and thawed 1:10 in 6-well plates under the same conditions as described in FIG. 5. To facilitate neuronal maturation prior to myoblast co-culture, 5 μM DAPT (Tocris) was added from days 8-14 post-thaw. […]

[3] = system: H9 ishcat2 hESC line; experiment: Doxycycline-inducible shRNA knockdown of β-catenin (CTNNB1) during motor neuron differentiation; settings: doxycycline 2 μg/mL
Description: In the ventral neural tube, SHH signaling generates OLIG2^+ motor neuron progenitors that subsequently mature into post-mitotic ISL1^+ and/or HB9^+ motor neurons. To probe the role of Wnt/β-catenin signaling during this process in vitro, we utilized the H9 ishcat2 hESC line, which harbors a doxycycline-inducible shRNA against CTNNB1.
Similarly, we induced β-catenin knockdown while differentiating the hESCs into motor neurons via E6 neural induction with RA (1 μM), purmorphamine (PM, a small molecule agonist of sonic hedgehog signaling; 100 nM), and neurotrophic factor treatment, as previously described (FIG. 3A).
as §2
hESCs were maintained on Matrigel (BD Biosciences) in E8 medium but with 10-fold lower insulin concentration (2 mg/L). Cell lines used in this study were H9 hESCs (passage 25-45) and H9 ishcat2 hESCs (passage 35-45). […]

[4] = system: H9 hESCs; experiment: Induction of NKX6.1+/PAX6+/OLIG2+ motor neuron progenitors from cervical neuromesoderm (flow cytometry, immunocytochemistry); settings: RA 1 μM for 2 days without PM or SHH, day 6
Description: To begin, we sequentially differentiated H9 hESCs in E6 media for 1 day, and FGF8b (200 ng/mL) for 1 day, and FGF8b and CHIR (3 μM) for 2 days to generate cervical neuromesoderm (FIGS. 5A-5B). Then, we screened the effects of CHIR, PM, and SHH treatment on NKX6.1^+/PAX6^+/OLIG2^+ motor neuron progenitor induction while transitioning to media containing 1 μM RA (FIGS. 5A-5D). Prior to the addition of RA, NKX6.1 was expressed in the cervical neuromesodermal state at day 4 (80±18% NKX6.1^+; data not shown), likely due to the CHIR-induced Wnt/β-catenin signaling (FIGS. 4A-4H). Transitioning the neuromesodermal progenitors to RA-containing media for 2 days induced HOXB4^+/HOXC6^+/HOXC9^−/HOXD10^−/PAX6^+ cervical neuroectoderm in all conditions (FIGS. 5B-5C), as expected. However, without co-activation of SHH signaling by PM or SHH, NKX6.1 expression was quickly lost by day 6 (97±1% PAX6^+, 17±3% NKX6.1^+) (FIG. 5C). […] To bolster this claim, we also analyzed the abundance of full-length GLI3 versus its truncated repressor form by western blot. […] Thus, Wnt/β-catenin signaling is necessary to induce ventral identity, but its continuous activation during OLIG2 induction by SHH signaling is detrimental to motor neuron differentiation, possibly due to activation of the GLI3 repressor.
Next, we tested conditions where CHIR was removed after transitioning to media containing RA (1 μM), PM (2 μM), and SHH (2 μg/mL) (FIGS. 5A-5C).
Since NKX6.1 is a pre-requisite to OLIG2 expression, we hypothesized that the Wnt/β-catenin signaling-dependent NKX6.1 expression levels may still be too low for efficient OLIG2^+ motor neuron progenitor induction. Therefore, the concentration of CHIR was boosted to 6 or 9 μM for 6 h immediately prior to transitioning to E6 medium containing RA, PM, and SHH without CHIR (FIG. 5A). The 9 μM CHIR boost followed by a transition to media containing 1 μM RA, 2 μM PM, and 2 μg/mL SHH yielded optimal motor neuron progenitor cultures with highly uniform NKX6.1, OLIG2, and PAX6 expression (96±1%, 85±9%, and 97±2%, respectively) (FIGS. 5C-5D).
as §3, §1

CNC1CCC(N(Cc2cccc(-c3ccncc3)c2)C(=O)c2sc3ccccc3c2Cl)CC1 (centres unmarked) [SAG]
HB9+ cells [1]: 65±15% | ISL1+ cells [1]: 63±13% | SMI32+ cells [1]: 72±4%

c1ccc2c(Oc3nc(Nc4ccc(N5CCOCC5)cc4)c4ncn(C5CCCCC5)c4n3)cccc2c1 [PM, Purmorphamine]
NKX6.1 induction within 24 h ([2]; combined RA 1 μM and PM 1 μM, no CHIR): did not induce NKX6.1

C[C@H]1c2cccc(O)c2C(=O)C2=C(O)[C@]3(O)C(=O)C(C(N)=O)=C(O)[C@@H](N(C)C)[C@@H]3[C@@H](O)[C@@H]21 [Doxycycline]
reduction of CTNNB1 expression (qPCR relative to RPS18) ([3]; day 3): 87% | NKX6.1 expression (flow cytometry) ([3]; β-catenin knockdown, day 16): 2±1%

CC1=C2C[C@H]3[C@@H](CC=C4C[C@@H](O)CC[C@@]43C)[C@@H]2CC[C@]12O[C@@H]1C[C@H](C)CN[C@H]1[C@H]2C [Cyclopamine]
NKX6.1 expression (flow cytometry) ([2]; CHIR 6 μM plus Cyclopamine 5 μM, 24 h): did not diminish NKX6.1 expression

CC1=C(/C=C/C(C)=C/C=C/C(C)=C/C(=O)O)C(C)(C)CCC1 [RA, Retinoic acid]
NKX6.1+ cells [4]: 17±3% | PAX6+ cells [4]: 97±1%

B1: WNT3A: soluble WNT3A, Wnt polypeptide ligand activating Wnt/β-catenin signaling (protein, UniProt P56704 19-352, looked up)
Protein Wnt-3a: SYPIWWSLAVGPQYSSLGSQPILCASIPGLVPKQLRFCRNYVEIMPSVAEGIKIGIQECQHQFRGRRWNCTTVHDSLAIFGPVLDKATRESAFVHAIASAGVAFAVTRSCAEGTAAICGCSSRHQGSPGKGWKWGGCSEDIEFGGMVSREFADARENRPDARSAMNRHNNEAGRQAIASHMHLKCKCHGLSGSCEVKTCWWSQPDFRAIGDFLKDKYDSASEMVVEKHRESRGWVETLRPRYTYFKVPTERDLVYYEASPNFCEPNPETGSFGTRDRTCNVSSHGIDGCDLLCCGRGHNARAERRREKCRCVFHWCCYVSCQECTRVYDVHTCK
NKX6.1 expression (flow cytometry) ([2]; WNT3A 200 ng/mL, day 3): 60±14%

B2: BMP4: a dorsal patterning factor (protein, UniProt P12644 293-408, looked up)
Bone morphogenetic protein 4: SPKHHSQRARKKNKNCRRHSLYVDFSDVGWNDWIVAPPGYQAFYCHGDCPFPLADHLNSTNHAIVQTLVNSVNSSIPKACCVPTELSAISMLYLDEYDKVVLKNYQEMVVEGCGCR
NKX6.1 expression (flow cytometry) ([2]; simultaneous CHIR 4 μM and BMP4 200 ng/mL, day 3): 68±2%
